In ChEMBL document CHEMBL5113526, “Design, Synthesis, and Biological Evaluation of Androgen Receptor Degrading and Antagonizing Bifunctional Steroidal Analogs for the Treatment of Advanced Prostate Cancer” (J Med Chem, 2022):

Assays:
Androgen receptor [1] = target: T1, Androgen receptor (Homo sapiens, UniProt P10275); assay: Induction of AR degradation in human LNCap cells incubated for 24 hrs by sandwich ELISA analysis; format: cell-based
T1 sequence (P10275 whole entry): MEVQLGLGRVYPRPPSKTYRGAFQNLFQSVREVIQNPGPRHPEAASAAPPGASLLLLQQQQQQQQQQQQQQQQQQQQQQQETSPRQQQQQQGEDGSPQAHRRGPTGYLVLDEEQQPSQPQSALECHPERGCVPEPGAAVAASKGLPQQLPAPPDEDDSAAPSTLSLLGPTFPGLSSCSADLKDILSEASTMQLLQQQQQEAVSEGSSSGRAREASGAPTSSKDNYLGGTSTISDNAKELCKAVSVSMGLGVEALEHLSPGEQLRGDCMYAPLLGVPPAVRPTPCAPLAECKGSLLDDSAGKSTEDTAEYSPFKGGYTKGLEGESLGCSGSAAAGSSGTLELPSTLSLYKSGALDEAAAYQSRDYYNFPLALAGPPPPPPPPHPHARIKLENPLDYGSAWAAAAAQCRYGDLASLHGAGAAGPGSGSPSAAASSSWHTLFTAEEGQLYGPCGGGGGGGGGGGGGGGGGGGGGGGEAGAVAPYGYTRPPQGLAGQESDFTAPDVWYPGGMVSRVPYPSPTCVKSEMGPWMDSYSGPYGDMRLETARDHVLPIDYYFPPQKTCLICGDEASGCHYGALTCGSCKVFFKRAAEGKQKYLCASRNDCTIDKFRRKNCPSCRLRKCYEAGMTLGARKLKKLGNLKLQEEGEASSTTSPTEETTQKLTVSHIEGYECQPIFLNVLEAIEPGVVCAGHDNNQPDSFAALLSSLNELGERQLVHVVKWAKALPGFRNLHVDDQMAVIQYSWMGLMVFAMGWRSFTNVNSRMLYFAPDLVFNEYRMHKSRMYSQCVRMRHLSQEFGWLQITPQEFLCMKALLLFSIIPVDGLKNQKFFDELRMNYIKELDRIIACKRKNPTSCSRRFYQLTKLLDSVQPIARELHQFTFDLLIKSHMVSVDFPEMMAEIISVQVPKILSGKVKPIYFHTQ

LNCaP [2] = assay: Antiproliferative activity against human LNCAP cells assessed as reduction in cell viability at 10 uM measured after 6 days by CellTiterGlo assay relative to control; format: functional; settings: Homo sapiens, LNCaP, time 6 day
LNCaP [3] = assay: cells; settings: Homo sapiens
Description: Antiproliferative activity against human LNCAP cells assessed as reduction in cell viability measured after 6 days by CellTiter-Glo assay

Androgen receptor [4] = target: T1, Androgen receptor; assay: Antagonist activity at DHT-induced Androgen receptor transcriptional activity in human HEK293 cells measured after 24 hrs by Steady-Glo reagent based assay; format: cell-based
[5] = target: T2, Steroid 17-alpha-hydroxylase/17,20 lyase (Homo sapiens, UniProt P05093); assay: Inhibition of human recombinant CYP17A1 incubated for 5 mins in presence of NADPH by LC-MS/MS analysis; format: ADME
T2 sequence (P05093 whole entry): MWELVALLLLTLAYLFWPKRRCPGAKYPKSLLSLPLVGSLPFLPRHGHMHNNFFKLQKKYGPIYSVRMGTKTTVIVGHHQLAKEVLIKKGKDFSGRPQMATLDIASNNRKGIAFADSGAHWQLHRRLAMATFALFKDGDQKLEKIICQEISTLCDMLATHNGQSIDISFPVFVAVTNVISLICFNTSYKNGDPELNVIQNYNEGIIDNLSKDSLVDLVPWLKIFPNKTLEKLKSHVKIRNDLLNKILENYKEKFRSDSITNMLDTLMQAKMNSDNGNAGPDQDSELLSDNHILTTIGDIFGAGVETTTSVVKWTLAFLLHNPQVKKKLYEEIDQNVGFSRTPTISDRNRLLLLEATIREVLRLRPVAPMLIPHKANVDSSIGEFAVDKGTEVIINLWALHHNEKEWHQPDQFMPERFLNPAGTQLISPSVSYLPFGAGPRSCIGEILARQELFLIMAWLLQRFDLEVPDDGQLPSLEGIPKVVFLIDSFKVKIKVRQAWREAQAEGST

[6] = AUC (0 to t) in Sprague-Dawley rat at 10 mg/kg, po measured up to 24 hrs by LC-MS/MS analysis; format: ADME, organism-based; parameters: time < 24 hrs, dose 10 mg/kg, route po; settings: in vivo
[7] = Terminal half life in Sprague-Dawley rat at 10 mg/kg, po measured up to 24 hrs by LC-MS/MS analysis; format: ADME, organism-based; settings: in vivo, read-out: beta t1/2 (converted)
[8] = Tmax in Sprague-Dawley rat at 10 mg/kg, po measured up to 24 hrs by LC-MS/MS analysis; format: ADME, organism-based; settings: in vivo
[9] = Cmax in Sprague-Dawley rat at 10 mg/kg, po measured up to 24 hrs by LC-MS/MS analysis; format: ADME, organism-based; parameters: dose 10 mg/kg, time < 24 hrs, route po; settings: in vivo

SMILES	inhibition at 10 µM (LNCaP [2])	IC50 (LNCaP [3])	also measured
Cc1cn(C2=CC[C@H]3[C@@H]4CC=C5C[C@@H](NC(=O)c6cccnc6)CC[C@]5(C)[C@H]4CC[C@]23C)cn1	103%	0.933 µM	DC50 (Androgen receptor [1]): 3.58 µM; IC50 (Androgen receptor [4]): 1.28 µM
C[C@]12CC[C@H](NC(=O)c3ccncc3)CC1=CC[C@@H]1[C@@H]2CC[C@]2(C)C(c3cncc(F)c3)=CC[C@@H]12	104%	1.01 µM	–
C[C@]12CC[C@H](NCc3ccncc3)CC1=CC[C@@H]1[C@@H]2CC[C@]2(C)C(n3cnc4ccccc43)=CC[C@@H]12	111%	2.39 µM	–
C[C@]12CC[C@H](NS(=O)(=O)c3cccnc3)CC1=CC[C@@H]1[C@@H]2CC[C@]2(C)C(n3cnc4ccccc43)=CC[C@@H]12	93.3%	1.64 µM	–
COc1cncc(C2=CC[C@H]3[C@@H]4CC=C5C[C@@H](NC(=O)c6ccnnc6)CC[C@]5(C)[C@H]4CC[C@]23C)c1	73.7%	0.646 µM	DC50 (Androgen receptor [1]): 38.4 µM; IC50 (Androgen receptor [4]): 0.914 µM
C[C@]12CC[C@H](NC(=O)c3ccncc3)CC1=CC[C@@H]1[C@@H]2CC[C@]2(C)C(n3cnc4ccccc43)=CC[C@@H]12	104%	0.763 µM	DC50 (Androgen receptor [1]): 3.76 µM; IC50 (Androgen receptor [4]): 1.55 µM
C[C@]12CC[C@H](O)C[C@@H]1[C@@H](OS(C)(=O)=O)C[C@@H]1[C@@H]2CC[C@]2(C)C(c3cccnc3)=CC[C@@H]12	100%	1.79 µM	–
C[C@]12CC[C@H](NC(=O)c3ccnnc3)CC1=CC[C@@H]1[C@@H]2CC[C@]2(C)C(n3cnc4ccccc43)=CC[C@@H]12	95.9%	0.765 µM	DC50 (Androgen receptor [1]): 4.78 µM; IC50 (Androgen receptor [4]): 1.35 µM
C[C@]12CC[C@H](NC(=O)c3ccnnc3)CC1=CC[C@@H]1[C@@H]2CC[C@]2(C)C(n3cncn3)=CC[C@@H]12	64.4%	0.238 µM	IC50 [5]: > 3 µM
Cc1cn(C2=CC[C@H]3[C@@H]4CC=C5C[C@@H](NC(=O)c6ccnnc6)CC[C@]5(C)[C@H]4CC[C@]23C)cn1	97%	0.466 µM	AUC(0-t) at 24 h [6]: 5620 ng·h/mL; half-life [7]: 3.58 h; Tmax [8]: 4.67 h; DC50 (Androgen receptor [1]): 2.08 µM; Cmax [9]: 802 ng/mL; IC50 [5]: > 3 µM; IC50 (Androgen receptor [4]): 0.244 µM
C[C@]12CC[C@H](NC(=O)c3cccnc3)CC1=CC[C@@H]1[C@@H]2CC[C@]2(C)C(c3cncnc3)=CC[C@@H]12	–	> 10 µM	–
C[C@]12CC[C@H](O)C[C@@H]1[C@H](NS(=O)(=O)c1cccnc1)C[C@@H]1[C@@H]2CC[C@]2(C)C(c3cccnc3)=CC[C@@H]12	100%	5.43 µM	–
C[C@]12CC[C@H](O)CC1=CC[C@@H]1[C@@H]2CC[C@]2(C)C(n3cnc4ccccc43)=CC[C@@H]12 [GALETERONE]	110%	3.55 µM	IC50 [5]: 0.016 µM
C[C@]12CC[C@H](O)C[C@@H]1[C@H](Oc1ccncn1)C[C@@H]1[C@@H]2CC[C@]2(C)C(c3cccnc3)=CC[C@@H]12	91.3%	3.16 µM	–
COc1cncc(C2=CC[C@H]3[C@@H]4CC=C5C[C@@H](NC(=O)c6cccnc6)CC[C@]5(C)[C@H]4CC[C@]23C)c1	–	> 10 µM	–
C[C@]12CC[C@H](NC(=O)c3cccnc3)CC1=CC[C@@H]1[C@@H]2CC[C@]2(C)C(n3ccnn3)=CC[C@@H]12	76.2%	1.39 µM	–
Cc1noc(C)c1S(=O)(=O)N[C@H]1CC[C@@]2(C)C(=CC[C@@H]3[C@@H]2CC[C@]2(C)C(n4cnc5ccccc54)=CC[C@@H]32)C1	100%	2.26 µM	–

SMILES	inhibition at 10 µM (LNCaP [2])	IC50 (LNCaP [3])	also measured
CO/N=C1\C[C@@H]2[C@H](CC[C@]3(C)C(c4cccnc4)=CC[C@@H]23)[C@@]2(C)CC[C@H](O)C[C@H]12	100%	8.12 µM	–
C[C@]12CC[C@H](NC(=O)c3cccnc3)CC1=CC[C@@H]1[C@@H]2CC[C@]2(C)C(n3cnc4ccccc43)=CC[C@@H]12	109%	1.6 µM	–
Cc1cncc(C2=CC[C@H]3[C@@H]4CC=C5C[C@@H](NC(=O)c6ccnnc6)CC[C@]5(C)[C@H]4CC[C@]23C)c1	78.2%	0.743 µM	DC50 (Androgen receptor [1]): 11.8 µM; IC50 (Androgen receptor [4]): 1.64 µM
C[C@]12CC[C@H](O)CC1=CC[C@@H]1[C@@H]2CC[C@]2(C)C(c3cccnc3)=CC[C@@H]12 [ABIRATERONE]	84.7%	2.71 µM	IC50 [5]: 0.002 µM
C[C@]12CC[C@H](NC(=O)c3cccnc3)CC1=CC[C@@H]1[C@@H]2CC[C@]2(C)C(n3cncn3)=CC[C@@H]12	105%	1.67 µM	–
Cn1cncc1S(=O)(=O)N[C@H]1CC[C@@]2(C)C(=CC[C@@H]3[C@@H]2CC[C@]2(C)C(n4cnc5ccccc54)=CC[C@@H]32)C1	100%	7.2 µM	–
Cc1cncc(C2=CC[C@H]3[C@@H]4CC=C5C[C@@H](NC(=O)c6cccnc6)CC[C@]5(C)[C@H]4CC[C@]23C)c1	90.3%	2.43 µM	–
C[C@]12CC[C@H](NC(=O)c3ccnnc3)CC1=CC[C@@H]1[C@@H]2CC[C@]2(C)C(c3cncnc3)=CC[C@@H]12	99.7%	0.82 µM	–
C[C@]12CC[C@H](NC(=O)c3cscn3)CC1=CC[C@@H]1[C@@H]2CC[C@]2(C)C(n3cnc4ccccc43)=CC[C@@H]12	63.2%	0.978 µM	–
C[C@]12CC[C@H](NC(=O)c3ccncn3)CC1=CC[C@@H]1[C@@H]2CC[C@]2(C)C(n3cnc4ccccc43)=CC[C@@H]12	101%	1.42 µM	–
C[C@]12CC[C@H](NC(=O)c3cocn3)CC1=CC[C@@H]1[C@@H]2CC[C@]2(C)C(n3cnc4ccccc43)=CC[C@@H]12	95.2%	2.23 µM	–
C[C@]12CC[C@H](NC(=O)c3cccnn3)CC1=CC[C@@H]1[C@@H]2CC[C@]2(C)C(n3cnc4ccccc43)=CC[C@@H]12	–	2.25 µM	–
C[C@]12CC[C@H](O)C[C@@H]1[C@H](CO)C[C@@H]1[C@@H]2CC[C@]2(C)C(c3cccnc3)=CC[C@@H]12	88.5%	2.83 µM	–
C[C@]12CC[C@H](NC(=O)c3ccnnc3)CC1=CC[C@@H]1[C@@H]2CC[C@]2(C)C(c3cncc(F)c3)=CC[C@@H]12	100%	2.21 µM	–
C[C@]12CC[C@H](NC(=O)c3ccnnc3)CC1=CC[C@@H]1[C@@H]2CC[C@]2(C)C(n3ccnn3)=CC[C@@H]12	–	0.672 µM	DC50 (Androgen receptor [1]): 4.36 µM; IC50 [5]: > 3 µM; IC50 (Androgen receptor [4]): 9.14 µM
C[C@]12CC[C@H](O)C[C@@H]1[C@H](NS(C)(=O)=O)C[C@@H]1[C@@H]2CC[C@]2(C)C(c3cccnc3)=CC[C@@H]12	–	> 10 µM	–
C[C@]12CC[C@H](NC(=O)c3ccnnc3)CC1=CC[C@@H]1[C@@H]2CC[C@]2(C)C(n3ccnc3)=CC[C@@H]12	92.4%	0.383 µM	DC50 (Androgen receptor [1]): 2.76 µM; IC50 (Androgen receptor [4]): 0.981 µM
